Experimental data reported in US5462861A, “Method for improving enzyme activities with noble gases” (American Air Liquide, Chicago Research Center, priority 1993, dated 1995).
Entries after “also recorded” stand apart in the source; their conditions may differ.

Columns and labels:
α-D-glucosidase = α-D-glucosidase activity under gas; type: biochemical; conditions: for effect on α-glucosidase activity: 60° C., FIG. 43; for effect on α-D-glucosidase: FIG. 31
Method: Solution preparation: Optimized w/v solutions are prepared by diluting the enzyme (units/ml) and the substrate (μg/ml) in appropriate buffer (optimized pH and molarity for enzymes). The solutions are used for gas experiments at once to avoid loss of activity. Various enzyme and substrate concentrations and inhibitors may be employed. Physical parameters are varied as required. […] Gas-tight serum vials are filled with enzyme and solvent. Sufficient gas is consecutively bubbled in the cuvets and serum vials, with a 1-hr wait between injections to maximize equilibration of gas. All syringes and dead spaces are purged before filling with the appropriate gas. The amount of gas used has been measured sufficient to saturate the solution required. Spectrophotometric time-drive, reaction rate, and kinetic analyses: cuvets and serum vials are saturated with gas 40 minutes before the run. A gas-filled syringe is used to retrieve 0.5 ml of enzyme solution to avoid air contact. […] Changes in the rate or final equilibrium of the reaction versus ambient air are recorded. Comparison is also made with added oxygen, and with deoxygenation. Some samples are also prepared under pressure.

Phosphoglucose isomerase = Phosphoglucose isomerase (Homo sapiens, UniProt P06744); assay: Phosphoglucose isomerase activity under gas; type: biochemical; conditions: for effect: phosphoglucose isomerase; for effect, stressed: stressed = nonoptimal substrate concentration or temperature
Method: (§1) Solution preparation: Optimized w/v solutions are prepared by diluting the enzyme (units/ml) and the substrate (μg/ml) in appropriate buffer (optimized pH and molarity for enzymes). The solutions are used for gas experiments at once to avoid loss of activity. Various enzyme and substrate concentrations and inhibitors may be employed. Physical parameters are varied as required.
(§2) Preparation of samples: Cuvets are filled with 2 ml of substrate solution by means of a gas-tight syringe. Gas-tight serum vials are filled with enzyme and solvent. Sufficient gas is consecutively bubbled in the cuvets and serum vials, with a 1-hr wait between injections to maximize equilibration of gas. All syringes and dead spaces are purged before filling with the appropriate gas. The amount of gas used has been measured sufficient to saturate the solution required.
(§3) Spectrophotometric time-drive, reaction rate, and kinetic analyses: cuvets and serum vials are saturated with gas 40 minutes before the run. A gas-filled syringe is used to retrieve 0.5 ml of enzyme solution to avoid air contact. The 0.5 ml syringe injections of enzyme are made simultaneously to effect a common starting time to for the samples. 7 gases (air, O2, N2, Ne, Ar, Kr, Xe) are run at various temperatures each (from 0° to 60° ). Changes in the rate or final equilibrium of the reaction versus ambient air are recorded. Comparison is also made with added oxygen, and with deoxygenation. Some samples are also prepared under pressure.
(§4) In a complete experiment, an enzyme at optimal pH and buffering salt concentration is reacted with 5 substrate concentrations in solution with noble gas at 1 atm. […] Controls are also run after evacuation of solution by vacuum. The reaction is monitored colorimetrically in a scanning spectrophotometer in real time, and the signals are treated mathematically to obtain rate and yield differences. Sample numbers are constant and sufficient to ensure significance of results. All parameters are independently controlled and measured, and more complex experiments are occasionally carried out.

Tyrosinase [1] = assay: Gas mixture experiment, tyrosinase; type: biochemical, Mushroom; conditions: inhibition vs. air control, 25° C.
Method: In addition to mixes of noble gases with nitrogen and oxygen, and of mixes of Kr and Xe, serial mixes of Ar and either Xe or Kr were tested. Results for tyrosinase expressed as inhibition vs. air control: Apr. 18, 1991: Gas mix prep: 120 cc serum vials were used to mix the gassed in. These vials were purged using vacuum while 1 atm of argon was maintained in the vial. The vials were purged for 20 seconds in this manner. The vials were under slight pressure which was released through a needle. This is considered 120 cc of Argon. The necessary volumes of Argon and the gas to be mixed with (Xe or Kr) were then introduced into the vials using a 30 cc syringe and needle. We gassed the enzyme using 1 vial of gas mix using 8×10 cc of gas out of the vial. We gassed the cuvette/substrate using a second vial of gas mix using 8×10 cc of gas out of the vial. Argon and Xenon were retrieved from the gas cylinders. […] We determined that we would be unable to retrieve 8×10 cc of gas mix from 1 vial. […] We prepared the Ar/Kr mixes as described above and did 2 replicates of the 10% and 50% mixes.

[2] = test system: Aspartate aminotransferase; assay: Aspartate aminotransferase activity under gas; type: biochemical; conditions: for effect on aspartate aminotransferase: FIG. 30; for effect: minus = inhibition
Method: as §1, §2, §3

[3] = target: Gamma-glutamyl transpeptidase (Homo sapiens, UniProt P19440); assay: Gamma-glutamyl transpeptidase activity under gas; type: biochemical; conditions: for effect on α-glutamyltranspeptidase: FIG. 29; for effect: minus = inhibition
Method: as §1, §2, §3, §4

Beta-D-glucosidase = Beta-D-glucosidase activity under gas; type: biochemical; conditions: for effect: plus = enhancement
Method: as §1, §2, §3, §4

tyrosinase [4] = assay: Oxygen addition experiment, tyrosinase; type: biochemical
Method: as §4

Glucose oxidase = Glucose oxidase (Aspergillus niger, UniProt P13006); assay: Glucose oxidase activity under gas; type: biochemical; conditions: for effect on glucose oxidase: FIG. 28; for effect: minus = inhibition, dependent upon temperature and substrate concentration
Method: as §1, §2, §3

[5] = after addition of oxygen up to a saturating amount to the gas-saturated solution
[6] = gas-saturated solution before addition of oxygen

Chain of Glucose oxidase (P13006 17-605): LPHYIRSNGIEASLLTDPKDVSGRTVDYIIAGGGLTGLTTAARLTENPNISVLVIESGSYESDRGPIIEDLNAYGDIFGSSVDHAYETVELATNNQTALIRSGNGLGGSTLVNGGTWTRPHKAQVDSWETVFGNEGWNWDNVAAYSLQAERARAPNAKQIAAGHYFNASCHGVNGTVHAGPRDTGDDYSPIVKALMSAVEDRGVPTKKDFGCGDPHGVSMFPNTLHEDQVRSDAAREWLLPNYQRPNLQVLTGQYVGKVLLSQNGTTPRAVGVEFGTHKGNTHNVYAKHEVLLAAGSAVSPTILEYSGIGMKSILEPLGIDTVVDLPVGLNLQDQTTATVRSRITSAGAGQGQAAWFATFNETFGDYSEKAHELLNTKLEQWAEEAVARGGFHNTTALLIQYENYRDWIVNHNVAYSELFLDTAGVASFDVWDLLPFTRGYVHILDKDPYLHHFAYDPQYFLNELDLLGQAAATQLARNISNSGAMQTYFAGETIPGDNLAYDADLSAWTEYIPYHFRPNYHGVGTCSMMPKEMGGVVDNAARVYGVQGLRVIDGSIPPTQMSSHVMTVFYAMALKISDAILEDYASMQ
Chain of Gamma-glutamyl transpeptidase (P19440 1-380 limits assumed): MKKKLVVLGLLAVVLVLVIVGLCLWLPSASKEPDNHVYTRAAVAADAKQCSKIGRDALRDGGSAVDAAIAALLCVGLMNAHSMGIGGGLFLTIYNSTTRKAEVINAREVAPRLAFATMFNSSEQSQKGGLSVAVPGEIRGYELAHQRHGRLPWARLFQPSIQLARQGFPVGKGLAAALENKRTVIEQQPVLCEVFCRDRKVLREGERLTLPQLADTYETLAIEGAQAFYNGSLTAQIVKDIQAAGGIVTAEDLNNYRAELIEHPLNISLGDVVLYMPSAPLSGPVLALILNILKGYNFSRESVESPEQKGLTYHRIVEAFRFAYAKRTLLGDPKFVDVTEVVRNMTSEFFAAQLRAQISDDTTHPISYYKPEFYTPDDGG

Compound | effect on α-glucosidase activity (α-D-glucosidase) | effect on α-D-glucosidase (α-D-glucosidase) | effect on phosphoglucose isomerase (Phosphoglucose isomerase; 10° C., FIG. 34) | effect (Phosphoglucose isomerase) | % inhibited (Tyrosinase [1]; Mix = % Kr in Ar) [%] | % inhibited (Tyrosinase [1]; Mix = % Xe in AR) [%] | effect on aspartate aminotransferase [2] | effect [2] [%] | effect on α-glutamyltranspeptidase [3] | effect [3] [%] | effect (Beta-D-glucosidase) | inhibition (tyrosinase [4]; [5]) | inhibition (tyrosinase [4]; [6]) [%] | effect on glucose oxidase (Glucose oxidase) | effect (Glucose oxidase) [%] | effect on phosphoglucose isomerase (Phosphoglucose isomerase; 25° C., FIG. 35) | effect, stressed (Phosphoglucose isomerase) [%] | enhancement (Beta-D-glucosidase; with the addition of different competing substrates)
[Ar] [Ar, argon] | enhanced; also recorded: potent enhancer | enhancement | enhancement | +232.5% | -75 | -75 | inhibition | -17 | inhibition | -5 | +16% | 12% | 82 | inhibition | -85.8 |  |  | 
N#N [N2, nitrogen, reference compound] | enhanced | enhancement |  |  |  |  |  |  |  |  |  | zero inhibition | 84 | inhibition |  | enhancement |  | 
[Ne] [Ne, neon] |  | enhancement |  | +107% |  |  |  | -12 |  | -3 |  |  |  | inhibition | -61.7 | enhancement | -45 | 
[Xe] [Xe, xenon] | enhanced |  | enhancement | +186% |  | -86 | inhibition | -17 | inhibition | -7 | +40% | 50% | 85 | inhibition | -91.6 |  | -61 | up to 200%
[Kr] [Kr, krypton] | inhibited |  | enhancement | +206.4% | -77 |  | inhibition | -82 | inhibition | -8 | +14% |  |  | inhibition | -92.7 |  |  | 
